Experimental findings from US12227500B2, “Substituted pyrrolo[2,3-b]pyridines for suppressing toxic endoplasmic reticulum stress” (THE TRUSTEES OF COLUMBIA UNIVERSITY IN THE CITY OF NEW YORK, priority 2018, dated 2025) are described below.

Like-named read-outs stand apart in the source and are kept apart here.

By half-life is commonly meant the time needed for the level to fall by half in the phase considered.

In one data set the target is T1, MLK1/MAP3K9 (Homo sapiens, UniProt P80192).
T1 construct: purchased Reaction Biology Corp
T1 sequence (P80192 whole entry): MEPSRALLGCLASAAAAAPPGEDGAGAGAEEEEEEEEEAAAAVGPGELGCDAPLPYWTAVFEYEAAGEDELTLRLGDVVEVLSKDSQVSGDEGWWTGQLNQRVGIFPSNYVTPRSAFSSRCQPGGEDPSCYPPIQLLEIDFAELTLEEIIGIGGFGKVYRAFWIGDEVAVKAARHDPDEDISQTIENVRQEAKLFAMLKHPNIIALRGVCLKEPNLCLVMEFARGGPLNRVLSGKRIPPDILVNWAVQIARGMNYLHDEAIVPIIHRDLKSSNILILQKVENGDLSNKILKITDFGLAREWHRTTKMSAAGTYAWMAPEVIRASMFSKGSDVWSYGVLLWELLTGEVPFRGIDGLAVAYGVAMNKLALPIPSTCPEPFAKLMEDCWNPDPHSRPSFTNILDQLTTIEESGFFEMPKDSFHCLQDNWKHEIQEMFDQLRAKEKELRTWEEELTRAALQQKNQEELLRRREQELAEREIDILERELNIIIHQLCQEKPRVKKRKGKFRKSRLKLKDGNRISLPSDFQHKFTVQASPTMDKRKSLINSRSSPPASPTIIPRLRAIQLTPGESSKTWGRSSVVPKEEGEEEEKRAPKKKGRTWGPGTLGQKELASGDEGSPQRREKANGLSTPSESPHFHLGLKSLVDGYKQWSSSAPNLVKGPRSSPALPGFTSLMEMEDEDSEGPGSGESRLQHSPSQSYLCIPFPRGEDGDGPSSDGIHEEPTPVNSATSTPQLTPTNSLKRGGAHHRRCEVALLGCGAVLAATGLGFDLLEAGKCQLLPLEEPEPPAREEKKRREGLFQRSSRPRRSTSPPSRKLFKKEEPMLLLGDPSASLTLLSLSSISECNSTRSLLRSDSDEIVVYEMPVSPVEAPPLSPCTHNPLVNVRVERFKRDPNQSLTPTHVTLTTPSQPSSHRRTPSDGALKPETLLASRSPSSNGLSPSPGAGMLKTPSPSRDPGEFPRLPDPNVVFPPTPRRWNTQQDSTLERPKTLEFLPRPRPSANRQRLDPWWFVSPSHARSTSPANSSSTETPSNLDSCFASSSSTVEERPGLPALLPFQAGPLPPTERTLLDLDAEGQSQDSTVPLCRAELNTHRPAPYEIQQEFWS
The data set is described as follows: Radiolabeled ATP kinase assay (Reaction Biology Corp.), MLK1. Conditions: [Cmpd] 0.1 μM, 10 μM ATP. It is filed as biochemical. The protocol: Meanwhile, the same analogs were analyzed in a radiolabeled ATP assay (10 μM ATP; Reaction Biology Corp.) to compare the extent to which they could inhibit the activity of HGK, MLK1, or MLK3 in a cell-free environment (Table S3 and S4).

Data set [1] addresses T2, panel of 60 human kinases (Homo sapiens, UniProt P11802).
T2 construct: purchased Reaction Biology Corp
The data set is described as follows: Radiolabeled ATP kinase assay, panel of 60 kinases (Table S5). It counts as biochemical. Conditions: 0.1 μM, 10 μM ATP, read-out: % Enzyme Activity (relative to DSMO controls). In short, it runs like this: (§1)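 Cell-free radiolabeled-ATP kinase assays across a panel of 60 kinases; each compound tested at 0.1 μM and 0.5 μM for inhibition.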

Data set [2] addresses T3, panel of 60 human kinases (Homo sapiens, UniProt P42684).
T3 construct: purchased Reaction Biology Corp
Described as above. It is filed as biochemical. Conditions: ABL2/ARG; 0.1 μM; 10 μM ATP; read-out: % Enzyme Activity (relative to DSMO controls). Summed up: as §1

The target of data set [3] is T4, panel of 60 human kinases (Homo sapiens, UniProt P50750).
T4 construct: purchased Reaction Biology Corp
T4 sequence (P50750 whole entry): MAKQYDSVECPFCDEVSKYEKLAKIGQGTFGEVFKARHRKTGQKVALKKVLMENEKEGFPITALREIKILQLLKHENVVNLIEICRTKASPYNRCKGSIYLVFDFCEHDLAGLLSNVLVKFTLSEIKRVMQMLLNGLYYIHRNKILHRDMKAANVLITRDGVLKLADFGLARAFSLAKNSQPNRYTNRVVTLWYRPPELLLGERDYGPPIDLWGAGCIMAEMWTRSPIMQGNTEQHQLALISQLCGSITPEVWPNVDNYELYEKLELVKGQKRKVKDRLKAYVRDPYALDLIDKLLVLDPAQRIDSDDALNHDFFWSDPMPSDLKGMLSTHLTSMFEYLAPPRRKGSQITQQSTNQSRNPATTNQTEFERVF
Described as above. It counts as biochemical. Conditions: 0.1 μM, 10 μM ATP, read-out: % Enzyme Activity (relative to DSMO controls). Summed up:
as §1

Data set [4] deals with T5, panel of 60 human kinases (Homo sapiens, UniProt Q00534).
T5 construct: purchased Reaction Biology Corp
T5 sequence (Q00534 whole entry): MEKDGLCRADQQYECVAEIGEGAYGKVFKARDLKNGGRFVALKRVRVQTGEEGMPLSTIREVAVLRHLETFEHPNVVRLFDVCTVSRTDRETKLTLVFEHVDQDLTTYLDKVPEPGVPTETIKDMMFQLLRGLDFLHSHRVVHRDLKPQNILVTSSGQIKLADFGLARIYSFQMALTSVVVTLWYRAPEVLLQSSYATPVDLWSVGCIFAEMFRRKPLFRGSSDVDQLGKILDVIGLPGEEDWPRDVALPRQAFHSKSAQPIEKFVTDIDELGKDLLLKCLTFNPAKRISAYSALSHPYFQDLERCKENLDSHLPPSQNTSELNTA
The description is as above. It is filed as biochemical. The following applies: 0.1 μM, 10 μM ATP, read-out: % Enzyme Activity (relative to DSMO controls). In short, it runs like this:
as §1

Data set [5] concerns the target T6, panel of 60 human kinases (Homo sapiens, UniProt Q15139).
T6 construct: purchased Reaction Biology Corp
T6 sequence (Q15139 1-912): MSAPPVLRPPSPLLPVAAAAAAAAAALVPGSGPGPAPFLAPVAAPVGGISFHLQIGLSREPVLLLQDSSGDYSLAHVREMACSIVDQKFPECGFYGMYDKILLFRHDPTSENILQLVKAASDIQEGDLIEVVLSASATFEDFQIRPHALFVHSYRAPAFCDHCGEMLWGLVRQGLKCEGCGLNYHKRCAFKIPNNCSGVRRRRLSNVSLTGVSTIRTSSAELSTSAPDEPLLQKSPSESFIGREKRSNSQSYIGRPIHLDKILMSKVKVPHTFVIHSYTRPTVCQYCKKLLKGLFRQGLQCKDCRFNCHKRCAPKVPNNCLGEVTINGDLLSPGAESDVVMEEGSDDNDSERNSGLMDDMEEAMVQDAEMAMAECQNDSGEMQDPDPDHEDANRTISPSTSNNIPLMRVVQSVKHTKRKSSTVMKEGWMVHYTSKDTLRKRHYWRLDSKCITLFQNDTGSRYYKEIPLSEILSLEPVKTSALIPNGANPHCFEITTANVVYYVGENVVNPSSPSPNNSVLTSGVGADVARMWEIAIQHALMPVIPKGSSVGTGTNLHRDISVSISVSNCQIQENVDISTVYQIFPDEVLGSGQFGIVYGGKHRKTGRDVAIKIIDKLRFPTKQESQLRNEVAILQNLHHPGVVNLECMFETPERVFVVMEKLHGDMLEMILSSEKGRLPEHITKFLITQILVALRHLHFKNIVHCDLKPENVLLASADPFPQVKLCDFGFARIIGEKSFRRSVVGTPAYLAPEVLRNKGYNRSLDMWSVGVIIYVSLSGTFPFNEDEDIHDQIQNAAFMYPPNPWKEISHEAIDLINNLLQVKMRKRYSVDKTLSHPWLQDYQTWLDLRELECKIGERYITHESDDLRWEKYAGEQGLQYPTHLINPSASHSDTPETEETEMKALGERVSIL
The description is as above. Conditions: PKCmu/PRKD1; 0.1 μM; 10 μM ATP; read-out: % Enzyme Activity (relative to DSMO controls). It is filed as biochemical. Summed up: as §1

The target of data set [6] is T7, panel of 60 human kinases (Homo sapiens, UniProt Q8N4C8).
T7 construct: purchased Reaction Biology Corp
T7 sequence (Q8N4C8 whole entry): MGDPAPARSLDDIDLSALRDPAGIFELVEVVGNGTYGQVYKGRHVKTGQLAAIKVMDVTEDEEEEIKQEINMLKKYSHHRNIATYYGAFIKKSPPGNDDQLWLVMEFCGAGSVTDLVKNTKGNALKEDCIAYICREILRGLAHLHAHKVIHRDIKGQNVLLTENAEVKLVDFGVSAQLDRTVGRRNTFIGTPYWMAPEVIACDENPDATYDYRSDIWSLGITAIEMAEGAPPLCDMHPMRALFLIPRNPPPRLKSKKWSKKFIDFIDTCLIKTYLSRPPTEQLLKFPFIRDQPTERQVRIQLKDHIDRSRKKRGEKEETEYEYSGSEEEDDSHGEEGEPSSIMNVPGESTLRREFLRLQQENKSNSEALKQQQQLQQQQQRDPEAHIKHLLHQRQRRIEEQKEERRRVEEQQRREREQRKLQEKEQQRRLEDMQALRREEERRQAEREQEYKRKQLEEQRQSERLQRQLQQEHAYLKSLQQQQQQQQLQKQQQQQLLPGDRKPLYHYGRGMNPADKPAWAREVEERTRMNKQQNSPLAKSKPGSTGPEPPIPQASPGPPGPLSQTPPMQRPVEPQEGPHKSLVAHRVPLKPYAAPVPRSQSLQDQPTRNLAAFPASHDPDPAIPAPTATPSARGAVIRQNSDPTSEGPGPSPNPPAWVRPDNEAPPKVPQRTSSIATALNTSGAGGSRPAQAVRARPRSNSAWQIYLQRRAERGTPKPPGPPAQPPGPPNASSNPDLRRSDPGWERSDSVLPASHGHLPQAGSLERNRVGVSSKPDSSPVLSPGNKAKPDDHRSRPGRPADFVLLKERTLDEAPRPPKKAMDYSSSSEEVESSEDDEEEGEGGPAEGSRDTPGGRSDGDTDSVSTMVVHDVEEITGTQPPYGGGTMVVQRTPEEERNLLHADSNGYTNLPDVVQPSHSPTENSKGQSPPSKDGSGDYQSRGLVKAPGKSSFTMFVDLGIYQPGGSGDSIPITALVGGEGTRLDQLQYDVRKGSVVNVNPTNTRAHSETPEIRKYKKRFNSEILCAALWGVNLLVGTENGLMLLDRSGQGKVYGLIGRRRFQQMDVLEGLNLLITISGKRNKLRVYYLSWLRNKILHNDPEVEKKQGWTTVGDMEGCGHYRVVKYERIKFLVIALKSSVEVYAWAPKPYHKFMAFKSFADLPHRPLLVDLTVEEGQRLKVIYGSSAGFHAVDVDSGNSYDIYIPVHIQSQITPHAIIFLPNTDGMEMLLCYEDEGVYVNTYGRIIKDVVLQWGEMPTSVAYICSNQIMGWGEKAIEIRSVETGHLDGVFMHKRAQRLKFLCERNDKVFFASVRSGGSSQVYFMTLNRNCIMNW
The data set is described as above. It counts as biochemical. The following applies: MINK/MINK1; 0.1 μM; 10 μM ATP; read-out: % Enzyme Activity (relative to DSMO controls). In short, it runs like this: as §1

A further data set can be described thus: in vitro. The following applies: CD-1, mouse, liver microsomes, pH 7.4.
[7] abbreviates: read-out: % Enzyme Activity Remaining (relative to DMSO controls), MLK1/MAP3K9, Data 1.
Where [8] appears, read: read-out: % Enzyme Activity Remaining (relative to DMSO controls), MLK1/MAP3K9, Data 2.

T3 sequence (P42684 whole entry): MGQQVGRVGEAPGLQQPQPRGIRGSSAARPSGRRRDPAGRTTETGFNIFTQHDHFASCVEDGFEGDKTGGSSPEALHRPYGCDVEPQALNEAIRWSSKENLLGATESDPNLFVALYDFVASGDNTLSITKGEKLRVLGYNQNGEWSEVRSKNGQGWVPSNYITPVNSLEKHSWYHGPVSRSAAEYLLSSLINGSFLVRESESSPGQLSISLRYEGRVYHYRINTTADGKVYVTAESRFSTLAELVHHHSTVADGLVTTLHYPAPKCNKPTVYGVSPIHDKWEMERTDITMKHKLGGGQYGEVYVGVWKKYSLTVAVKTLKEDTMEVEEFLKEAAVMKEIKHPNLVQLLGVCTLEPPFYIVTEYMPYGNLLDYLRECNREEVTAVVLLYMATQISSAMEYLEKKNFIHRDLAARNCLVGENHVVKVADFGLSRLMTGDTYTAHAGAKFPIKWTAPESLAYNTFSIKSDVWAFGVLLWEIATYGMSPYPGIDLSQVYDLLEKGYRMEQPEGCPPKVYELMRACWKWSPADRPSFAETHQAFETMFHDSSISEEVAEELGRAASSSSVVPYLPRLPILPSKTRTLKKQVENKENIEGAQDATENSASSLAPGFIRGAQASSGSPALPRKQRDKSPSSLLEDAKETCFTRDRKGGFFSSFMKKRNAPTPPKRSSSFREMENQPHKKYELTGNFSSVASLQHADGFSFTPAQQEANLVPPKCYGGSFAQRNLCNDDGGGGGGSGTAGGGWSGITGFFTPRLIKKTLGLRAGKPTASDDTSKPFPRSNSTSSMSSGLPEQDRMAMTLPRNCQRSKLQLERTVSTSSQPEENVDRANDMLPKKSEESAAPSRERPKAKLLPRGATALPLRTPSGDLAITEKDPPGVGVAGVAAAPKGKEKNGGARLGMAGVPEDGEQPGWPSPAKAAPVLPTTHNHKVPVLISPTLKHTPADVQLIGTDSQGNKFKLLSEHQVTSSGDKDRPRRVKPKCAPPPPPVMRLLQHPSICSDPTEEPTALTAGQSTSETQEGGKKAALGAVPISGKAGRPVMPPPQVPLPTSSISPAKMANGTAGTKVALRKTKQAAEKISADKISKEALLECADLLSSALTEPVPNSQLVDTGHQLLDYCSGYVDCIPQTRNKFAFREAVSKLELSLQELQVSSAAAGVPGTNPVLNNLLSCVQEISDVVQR
T2 sequence (P11802 whole entry): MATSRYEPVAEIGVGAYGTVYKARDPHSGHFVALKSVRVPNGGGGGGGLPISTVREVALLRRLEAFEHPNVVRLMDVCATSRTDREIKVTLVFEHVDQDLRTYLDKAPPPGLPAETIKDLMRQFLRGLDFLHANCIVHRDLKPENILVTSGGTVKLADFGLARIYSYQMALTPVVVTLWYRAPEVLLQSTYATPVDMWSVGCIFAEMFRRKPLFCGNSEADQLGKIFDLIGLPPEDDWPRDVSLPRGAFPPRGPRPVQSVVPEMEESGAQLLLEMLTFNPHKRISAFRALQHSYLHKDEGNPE
Procedure for in vitro: To test the metabolic stability of the analogs, an in vitro microsomal stability assay was carried out.
The microsomal stability assay was performed in 96-well format (Perkin-Elmer, StorPlate-96U, PP, 96 well, round bottom). […] A stock solution of the compound to be analyzed (0.8 μL. 5 mM) or ethoxycoumarin (positive control, 0.8 μL, 5 mM) was added and the mixture was warmed to 37° C. for 5 minutes. The mouse microsomes (CD-1, 5 μL, thawed in a 37° C. water bath before use, 20 mg/mL, Life Technologies) were added. At selected time points (0, 15, 30, 45, 60 and 120 minutes) aliquots (15 μL) were withdrawn from the plate and quenched upon addition to cold acetonitrile (60 μL), containing an internal standard (5 μM) in a 96-well plate. The samples were centrifuged at 13,000 rpm for 10 minutes at 4° C. The supernatant (40 μL) was withdrawn and transferred to a sample vial with insert. The samples were analyzed by LC-MS.
LC-MS analysis was performed on a platform comprising a Thermo Scientific Dionex Ultimate 3000 and a Bruker amaZon SL equipped with an electrospray ionization source controlled by Bruker Hystar 3.2. […] The flow rate was maintained at 400 μL/min. The initial flow conditions were 60% solvent A (water containing 0.1% acetic acid) and 40% solvent B (methanol containing 0.1% acetic acid).
Aliquots were taken over the course of two hours and analyzed by HPLG-MS using an internal standard to assess compound stability over time.

On to `CN1CCN(Cc2ccc(-c3cnc4[nH]cc(-c5ccc6[nH]ccc6c5)c4c3)cc2)CC1` [Compound 1, 3-(1H-Indol-5-yl)-5-(4-((4-methylpiperazin-1-yl)methyl)phenyl)-1H-pyrrolo[2,3-b]pyridine, reference compound], for which the remaining activity at 0.1 µM on MLK1/MAP3K9 (setting [7]) came out at 16.2%; at MLK1/MAP3K9 (setting [8]) it was 14.2%; in data set [1] (CDK4/cyclin D1) it was 51%; in data set [1] (CDK4/cyclin D3), 49.1%; in data set [2] it was 54.9%; in data set [3] (CDK9/cyclin K) it was 102%. Further, the remaining activity at 0.1 µM was 96.6% in data set [3] (CDK9/cyclin T1); 98.1% in data set [3] (CDK9/cyclin T2); 47.2% in data set [4] (CDK6/cyclin D1); 66.1% in data set [4] (CDK6/cyclin D3); 11.4% in data set [5]; 5.53% in data set [6]. In “in vitro”, this compound returned a half-life at 20 μM of 7.8 min.

On to `CN1CCN(Cc2ccc(-c3cnc4[nH]cc(-c5cnn(Cc6ccccc6)c5)c4c3)cc2)CC1` [Compound 7ah, 3-(1-Benzyl-1H-pyrazol-4-yl)-5-(4-((4-methylpiperazin-1-yl)methyl)phenyl)-1H-pyrrolo[2,3-b]pyridine], for which the remaining activity at 0.1 µM on MLK1/MAP3K9 (setting [7]) was 51.1%; at MLK1/MAP3K9 (setting [8]) it was 48.2%; in data set [1] (CDK4/cyclin D1), 25.9%; in data set [1] (CDK4/cyclin D3), 26%; in data set [2], 95.1%; in data set [3] (CDK9/cyclin K), 93.3%. In addition, the remaining activity at 0.1 µM came out at 57.8% in data set [3] (CDK9/cyclin T1); 82.7% in data set [3] (CDK9/cyclin T2); 28.6% in data set [4] (CDK6/cyclin D1); 33.2% in data set [4] (CDK6/cyclin D3); 4.39% in data set [5]; 5.06% in data set [6].

Consider `Cc1nn(C)c(C)c1-c1c[nH]c2ncc(-c3ccc(CN4CCN(C)CC4)cc3)cc12` [Compound 7ai, 5-(4-((4-Methylpiperazin-1-yl)methyl)phenyl)-3-(1,3,5-trimethyl-1H-pyrazol-4-yl)-1H-pyrrolo[2,3-b]pyridine], for which the remaining activity at 0.1 µM was 93.3% at MLK1/MAP3K9 (setting [7]); 90.5% on MLK1/MAP3K9 (setting [8]); 65.9% in data set [1] (CDK4/cyclin D1); 65.4% in data set [1] (CDK4/cyclin D3); 44.4% in data set [2]; 99.7% in data set [3] (CDK9/cyclin K). For the same compound, the remaining activity at 0.1 µM in data set [3] (CDK9/cyclin T1) worked out at 85.8%; in data set [3] (CDK9/cyclin T2) it was 84.8%; in data set [4] (CDK6/cyclin D1), 47.9%; in data set [4] (CDK6/cyclin D3), 76%; in data set [5] it was 14.2%; in data set [6], 7.8%.

As for `CN1CCN(Cc2ccc(-c3cnc4[nH]cc(-c5ccccc5Cl)c4c3)cc2)CC1` [Compound 7as, 3-(2-Chlorophenyl)-5-(4-((4-methylpiperazin-1-yl)methyl)phenyl)-1H-pyrrolo[2,3-b]pyridine], the remaining activity at 0.1 µM at MLK1/MAP3K9 (setting [7]) worked out at 72.7%; at MLK1/MAP3K9 (setting [8]), 73.3%; in data set [1] (CDK4/cyclin D1), 31.9%; in data set [1] (CDK4/cyclin D3), 39.7%; in data set [2] it was 0.99%; in data set [3] (CDK9/cyclin K) it was 96.6%. Besides, the remaining activity at 0.1 µM in data set [3] (CDK9/cyclin T1) was 82.3%; in data set [3] (CDK9/cyclin T2), 74.2%; in data set [4] (CDK6/cyclin D1) it was 15.6%; in data set [4] (CDK6/cyclin D3), 36.1%; in data set [5], 9.63%; in data set [6] it was 0.19%.

Take `CN1CCN(Cc2ccc(-c3cnc4[nH]cc(-c5ccc6c(c5)OCCO6)c4c3)cc2)CC1` [Compound 7d, 3-(2,3-Dihydrobenzo[b][1,4]dioxin-6-yl)-5-(4-((4-methylpiperazin-1-yl)methyl)phenyl)-1H-pyrrolo[2,3-b]pyridine]: the remaining activity at 0.1 µM on MLK1/MAP3K9 (setting [7]) is 25.6%; at MLK1/MAP3K9 (setting [8]), 23.6%; in data set [1] (CDK4/cyclin D1), 19.4%; in data set [1] (CDK4/cyclin D3), 26.7%; in data set [2], 72.7%; in data set [3] (CDK9/cyclin K), 95.8%. The remaining activity at 0.1 µM in data set [3] (CDK9/cyclin T1) was found to be 85.5%; in data set [3] (CDK9/cyclin T2) it was 93.7%; in data set [4] (CDK6/cyclin D1), 15.1%; in data set [4] (CDK6/cyclin D3), 52.3%; in data set [5], 4.34%; in data set [6] it was 6.69%.

On to `CN1CCN(Cc2ccc(-c3cnc4[nH]cc(-c5ccncc5)c4c3)cc2)CC1` [Compound 7n, 5-(4-((4-Methylpiperazin-1-yl)methyl)phenyl)-3-(pyridin-4-yl)-1H-pyrrolo[2,3-b]pyridine], for which the remaining activity at 0.1 µM was found to be 88.9% at MLK1/MAP3K9 (setting [7]); 88.7% at MLK1/MAP3K9 (setting [8]); 27.8% in data set [1] (CDK4/cyclin D1); 37% in data set [1] (CDK4/cyclin D3); 91.5% in data set [2]; 83.4% in data set [3] (CDK9/cyclin K). Further, the remaining activity at 0.1 µM in data set [3] (CDK9/cyclin T1) worked out at 47.9%; in data set [3] (CDK9/cyclin T2), 38.8%; in data set [4] (CDK6/cyclin D1), 23.4%; in data set [4] (CDK6/cyclin D3) it was 51.8%; in data set [5], 31.5%; in data set [6] it was 38.8%.

As for `CN1CCN(Cc2ccc(-c3cnc4[nH]cc(-c5ccoc5)c4c3)cc2)CC1` [Compound 7w, 3-(Furan-3-yl)-5-(4-((4-methylpiperazin-1-yl)methyl)phenyl)-1H-pyrrolo[2,3-b]pyridine], the remaining activity at 0.1 µM at MLK1/MAP3K9 (setting [7]) was 76%; at MLK1/MAP3K9 (setting [8]) it was 79.3%; in data set [1] (CDK4/cyclin D1), 73.4%; in data set [1] (CDK4/cyclin D3) it was 72.2%; in data set [2], 77.6%; in data set [3] (CDK9/cyclin K), 97.8%. The remaining activity at 0.1 µM in data set [3] (CDK9/cyclin T1) turned out to be 96.1%; in data set [3] (CDK9/cyclin T2), 65.6%; in data set [4] (CDK6/cyclin D1), 58.5%; in data set [4] (CDK6/cyclin D3) it was 68.4%; in data set [5], 20.4%; in data set [6], 3.72%.

The compound `OCCN1CCN(Cc2ccc(-c3cnc4[nH]cc(-c5cccc(Cl)c5)c4c3)cc2)CC1` [Compound 12k, 2-(4-(4-(3-(3-Chlorophenyl)-1H-pyrrolo[2,3-b]pyridin-5-yl)benzyl)piperazin-1-yl)ethan-1-ol] showed a half-life at 20 μM in the data set “in vitro” greater than 120 min.
